In US8551984B2, “Aminopyrimidines as SYK inhibitors” (Merck Sharp & Dohme Corp., priority 2009, dated 2013):
pIC50: −log10 of the molar value. Read-outs that look alike come from different tables or passages of the source.

Biological target: rhSYK (Homo sapiens, UniProt P43405)
[1] = read-out: rhSYK Activity, class symbol, where two forms are listed, one symbol per form
[2] = read-out: rhSYK activity, class symbol given
[3] = read-out: rhSYK Activity, Table 119, two symbols in a cell = one per listed form

| SMILES | pIC50 [1] | other results |
| --- | --- | --- |
| Cc1cc(Nc2nccc(C(F)(F)F)n2)cc(-c2cnc(C(C)(O)c3cc(CC(=O)O)cs3)s2)c1 (stereo not drawn) [Example 4A-63] | > 7.00 | – |
| CC(C)(C)C(C)(O)c1ncc(-c2cccc(Nc3nccc(C(F)(F)F)n3)c2)s1 (stereo not drawn) [Example 4A-6] | 6.00 to 7.00 | – |
| COC(=O)C(C)(C)C(C)(O)c1ncc(-c2cc(C)cc(Nc3nccc(C(F)(F)F)n3)c2)s1 (stereo not drawn) [Example 4A-48] | > 7.00 | – |
| OC1(c2ncc(-c3cccc(Nc4nccc(C(F)(F)F)n4)c3)s2)CC2COCC(C1)N2Cc1ccccc1 (stereo not drawn) [Example 4B-9] | 5.00 to 6.00 | – |
| Cc1cc(Nc2nccc(C(F)(F)F)n2)cc(-c2cnc(C3(O)CCC(NC(=O)C4CCC(=O)O4)CC3)s2)c1 (stereo not drawn) [Example 4C-31] | > 7.00 | – |
| Cc1cc(Nc2nccc(C(F)(F)F)n2)cc(-c2cnc(C(=O)CCC#N)s2)c1 [Example 4B-59] | > 7.00 | – |
| Cc1cc(Nc2nccc(C(F)(F)F)n2)cc(-c2cnc(C(C)(O)c3ccc(Br)nc3)s2)c1 (single isomer, unassigned) [Example 4A-68] | > 7.00 | – |
| Cc1cc(Nc2nccc(C(F)(F)F)n2)cc(-c2cnc([C@]3(O)CC[C@@H](O)CC3)s2)c1 [Example 8(1), cis-1-[5-(3-methyl-5-{[4-(trifluoromethyl)pyrimidin-2-yl]amino}phenyl)-1,3-thiazol-2-yl]-cyclohexane-1,4-diol] | – | pIC50 [2]: > 7.00 |
| Cc1cc(Nc2nccc(C(F)(F)F)n2)cc(-c2cnc(C(C)(O)CF)s2)c1 (stereo not drawn) [Example 4A-33] | > 7.00 | – |
| Cc1cc(Nc2nccc(C(F)(F)F)n2)cc(-c2cnc(C(C)(O)c3cccc(-c4cccc(C(=O)O)c4)c3)s2)c1 (stereo not drawn) [Example 4A-75] | > 7.00 | – |
| CC(O)(c1ccc(S(C)(=O)=O)s1)c1ncc(-c2cccc(Nc3nccc(C(F)(F)F)n3)c2)s1 (stereo not drawn) [Example 4A-29] | 6.00 to 7.00 | – |
| Cc1cc(Nc2nccc(C(F)(F)F)n2)cc(-c2cnc([C@]3(O)CC[C@@](C)(O)CC3)s2)c1 [9(2), cis-1-methyl-4-[5-(3-methyl-5-{[4-(trifluoromethyl)pyrimidin-2-yl]amino}phenyl)-1,3-thiazol-2-yl]cyclohexane-1,4-diol] | – | pIC50 [2]: > 7.00 |
| CC(=O)NC1(c2ncc(-c3cc(C)cc(Nc4nccc(C(F)(F)F)n4)c3)s2)CCC1 [Example 66, N-{1-[5-(3-methyl-5-{[4-(trifluoromethyl)pyrimidin-2-yl]amino}phenyl)-1,3-thiazol-2-yl]cyclobutyl}acetamide] | – | pIC50 [2]: > 7.00 |
| OC(c1cccnc1)c1ncc(-c2cccc(Nc3nccc(C(F)(F)F)n3)c2)s1 (stereo not drawn) [Example 4A-18] | 6.00 to 7.00 | – |
| CC(O)(c1ncc(-c2cccc(Nc3nccc(C(F)(F)F)n3)c2)s1)C(F)F (stereo not drawn) [Example 4A-10] | > 7.00 | – |
| Oc1ccc(Nc2nccc(C(F)(F)F)n2)cc1-c1cnc(C2(O)CCC2)s1 [Example 1-5] | > 7.00 | – |
| CC(O)(c1cnccn1)c1ncc(-c2cccc(Nc3nccc(C(F)(F)F)n3)c2)s1 (stereo not drawn) [Example 4A-22] | > 7.00 | – |
| Cc1cc(Nc2ncc(F)c(C)n2)cc(-c2cnc(C(C)(O)CO)s2)c1 (stereo not drawn) [Ex 5-8] | > 7.00 | – |
| Cc1cc(Nc2nccc(C(F)(F)F)n2)cc(-c2cnc(C(C)(O)c3cncc(Br)c3)s2)c1 (stereo not drawn) [Example 4A-71] | > 7.00 | – |
| Cc1cc(Nc2nccc(C(F)(F)F)n2)cc(-c2cnc(C3(O)CCC(C(=O)O)CC3)s2)c1 (stereo not drawn) [33(1)-NA, Sodium cis-4-hydroxy-4-[5-(3-methyl-5-{[4-(trifluoromethyl)pyrimidin-2-yl]amino}phenyl)-1,3-thiazol-2-yl]cyclohexanecarboxylate] | – | pIC50 [2]: > 7.00 |
| C=CCCC(C)(O)c1ncc(-c2cc(C)cc(Nc3nccc(C(F)(F)F)n3)c2)s1 (stereo not drawn) [Example 4A-43] | > 7.00 | – |

| SMILES | pIC50 [1] | other results |
| --- | --- | --- |
| Cc1cc(Nc2nccc(C(F)(F)F)n2)cc(-c2cnc(C(C)(O)CC(C)N)s2)c1 (stereo not drawn) [Example 4A-45] | > 7.00 | – |
| Cc1cc(Nc2nccc(C(F)(F)F)n2)cc(-c2cnc(C(C)(O)c3noc(C)n3)s2)c1 (stereo not drawn) [Example 4A-36] | > 7.00 | – |
| COc1ccsc1C(C)(O)c1ncc(-c2cc(C)cc(Nc3nccc(C(F)(F)F)n3)c2)s1 (stereo not drawn) [Example 4A-50] | > 7.00 | – |
| COc1ccnc(Nc2cc(C)cc(-c3cnc(C(C)(O)c4ccc(C(=O)O)cc4)s3)c2)n1 (stereo not drawn) [Example 4A-79] | > 7.00 | – |
| Cc1cc(Nc2nccc(C(F)(F)F)n2)cc(-c2cnc(C(C)(O)c3ccc([N+](=O)[O-])cc3)s2)c1 (stereo not drawn) [Example 4A-56] | 6.00 to 7.00 | – |
| Cc1cc(Nc2nccc(C(F)(F)F)n2)cc(-c2cnc(C3(O)CCC(C(N)=O)C3)s2)c1 (single isomer, unassigned) [Example 119-1] | – | pIC50 [3]: > 7.00 |
| Cc1cc(Nc2nccc(C(F)(F)F)n2)cc(-c2cnc(C(C)(O)c3ccc(S(=O)(=O)N(C)C)cc3)s2)c1 (stereo not drawn) [Example 4A-73] | 6.00 to 7.00 | – |
| Cc1cc(Nc2nccc(C(F)(F)F)n2)cc(-c2cnc([C@]3(O)CC[C@@H](CO)CC3)s2)c1 [Example 4C-8] | > 7.00 | – |
| COC(=O)c1ccc(C(C)(O)c2ncc(-c3cc(C)cc(Nc4nccc(C(F)(F)F)n4)c3)s2)cc1OC (stereo not drawn) [Example 4A-72] | 6.00 to 7.00 | – |
| Cc1cc(Nc2nccc(C(F)(F)F)n2)cc(-c2cnc(C(C)(O)c3ccc(Br)nc3)s2)c1 (single isomer, unassigned) [Example 4A-69] | > 7.00 | – |
| Cc1cc(Nc2nccc(C(F)(F)F)n2)cc(-c2cnc(C3(O)CCC(C(N)=O)CC3)s2)c1 (stereo not drawn) [38(2), cis-4-hydroxy-4-[5-(3-methyl-5-{[4-(trifluoromethyl)pyrimidin-2-yl]amino}phenyl)-1,3-thiazol-2-yl]cyclohexanecarboxamide] | – | pIC50 [2]: > 7.00 |
| Cc1cc(Nc2nccc(C(F)(F)F)n2)cc(-c2cnc(C3(O)CCC(C(N)=O)C3)s2)c1 (single isomer, unassigned) [Example 119-4] | – | pIC50 [3]: > 7.00 |
| Cc1cc(Nc2nccc(C(F)(F)F)n2)cc(-c2cnc(C(O)(CO)CO)s2)c1 [Example 4A-38] | > 7.00 | – |
| Cc1cc(Nc2nccc(C)n2)cc(-c2cnc(C3(O)C4CC5CC3CN(C5)C4)s2)c1 (stereo not drawn) [Example 4B-17] | 6.00 to 7.00 | – |
| Cc1cc(Nc2nccc(C(F)(F)F)n2)cc(-c2cnc([C@]3(O)CC[C@@H](CC(=O)O)CC3)s2)c1 [Example 4C-14] | > 7.00 | – |
| Cc1cc(Nc2nccc(C(F)(F)F)n2)cc(-c2cnc(C3(O)CCC(C(N)=O)C(C)(C)C3)s2)c1 (stereo not drawn) [Example 119-132] | – | pIC50 [3]: > 7.00 |
| OC1(c2ncc(-c3cc(Nc4nccc(C(F)(F)F)n4)ccc3Cl)s2)CCC1 [Example 1-2] | 6.00 to 7.00 | – |
| Cc1cc(Nc2nccc(C(C)F)n2)cc(-c2cnc(C3(O)CCC(C(N)=O)C(C)(C)C3)s2)c1 (stereo not drawn) [Example 119-123] | – | pIC50 [3]: > 7.00 |
| Cc1cc(Nc2ncc(F)c(C3CC3)n2)cc(-c2cnc(C(C)(O)CO)s2)c1 (stereo not drawn) [Ex 5-18] | > 7.00 | – |
| Cc1cc(Nc2nccc(C(F)(F)F)n2)cc(-c2cnc(C(C)(O)c3ccc(C(C)O)cc3)s2)c1 (stereo not drawn) [Example 8B-4] | > 7.00 | – |
| CCC(O)(c1ncc(-c2cccc(Nc3nccc(C(F)(F)F)n3)c2)s1)C(F)(F)F (stereo not drawn) [Example 4A-9] | > 7.00 | – |

| SMILES | pIC50 [1] | other results |
| --- | --- | --- |
| Cc1cc(Nc2nccc(C(F)(F)F)n2)cc(-c2cnc(C(C)(O)CO)s2)c1 (stereo not drawn) [Ex 5-7] | > 7.00 | – |
| Cc1cc(Nc2nccc(C(F)(F)F)n2)cc(-c2cnc(C(C)(O)c3cccc(C(=O)O)c3)s2)c1 (single isomer, unassigned) [Example 4A-55] | > 7.00 | – |
| CC(C)(O)c1ncc(-c2cccc(Nc3nccc(C(F)(F)F)n3)c2)s1 [Example 4A-1] | > 7.00 | – |
| N#CCCC1CCCCC1(O)c1ncc(-c2cccc(Nc3nccc(C(F)(F)F)n3)c2)s1 (stereo not drawn) [Example 4B-6] | 6.00 to 7.00 | – |
| Cc1cc(Nc2nccc(C(F)(F)F)n2)cc(-c2cnc([C@]3(O)CC[C@@H](NC(=O)Cc4ccccn4)CC3)s2)c1 [Example 4C-32] | > 7.00 | – |
| CC(O)(c1ncc(-c2cccc(Nc3nccc(C(F)(F)F)n3)c2)s1)C(F)(F)F (stereo not drawn) [Example 4A-2] | > 7.00 | – |
| Cc1cc(Nc2nccc(C)n2)cc(-c2cnc(C(O)(CO)CO)s2)c1 [Example 4A-39] | > 7.00 | – |
| Cc1cc(Nc2nccc(C(F)(F)F)n2)cc(-c2cnc(C(C)(O)c3ncnn3C)s2)c1 (stereo not drawn) [Example 4A-35] | > 7.00 | – |
| Cc1cc(Nc2nccc(C(F)(F)F)n2)cc(-c2cnc(C(O)(CO)C(F)(F)F)s2)c1 (single isomer, unassigned) [Example 6-8] | > 7.00 | – |
| Cc1cc(Nc2nccc(C(F)(F)F)n2)cc(-c2cnc(C3(O)CCC(CC(C)(C)C(=O)O)CC3)s2)c1 (stereo not drawn) [Example 4C-26] | > 7.00 | – |
| Cc1cc(Nc2nccc(C(F)(F)F)n2)cc(-c2cnc(C3(O)CCC(CN)CC3)s2)c1 (stereo not drawn) [Example 4C-4] | > 7.00 | – |
| Cc1cc(Nc2nccc(C(F)(F)F)n2)cc(-c2cnc(C(C)(O)CO)s2)c1 (stereo not drawn) [Ex 5-6] | > 7.00 | – |
| Cc1cc(Nc2nccc(C(F)(F)F)n2)cc(-c2cnc(C3(O)CCC(O)CC3)s2)c1 (stereo not drawn) [8(2), trans-1-[5-(3-methyl-5-{[4-(trifluoromethyl)pyrimidin-2-yl]amino}phenyl)-1,3-thiazol-2-yl]-cyclohexane-1,4-diol] | – | pIC50 [2]: > 7.00 |
| COCC(C)(O)c1ncc(-c2cc(C)cc(Nc3nccc(C(F)(F)F)n3)c2)s1 (stereo not drawn) [Example 4A-32] | > 7.00 | – |
| Cc1ccc(Nc2nccc(C(F)(F)F)n2)cc1-c1cnc(C2(O)CCC2)s1 [Example 1-6] | > 7.00 | – |
| Cc1cc(Nc2nccc(C(F)(F)F)n2)cc(-c2cnc(C(C)(O)c3cnc4sc(C(=O)O)c(C)c4c3)s2)c1 (stereo not drawn) [Example 4A-74] | > 7.00 | – |
| Cc1cc(Nc2ncc(F)c(C)n2)cc(-c2cnc(C(C)(O)CO)s2)c1 (stereo not drawn) [Ex 5-10] | > 7.00 | – |
| CN(C)CC(C)(C)C(O)c1ncc(-c2cccc(Nc3nccc(C(F)(F)F)n3)c2)s1 (stereo not drawn) [Example 4A-8] | 6.00 to 7.00 | – |
| CCOC(=O)C(O)(c1ncc(-c2cc(C)cc(Nc3nccc(C(F)(F)F)n3)c2)s1)C(F)(F)F (stereo not drawn) [Example 6-6] | > 7.00 | – |
| O=C(c1ccon1)c1ncc(-c2cccc(Nc3nccc(C(F)(F)F)n3)c2)s1 [Example 4B-5] | > 7.00 | – |
| Cc1cc(Nc2nccc(C(F)(F)F)n2)cc(-c2cnc(C3(NS(=O)(=O)C(C)(C)C)COC3)s2)c1 [Example 61, 2-methyl-N-{3-[5-(3-methyl-5-{[4-(trifluoromethyl)pyrimidin-2-yl]amino}phenyl)-1,3-thiazol-2-yl]oxetan-3-yl}propane-2-sulfonamide] | – | pIC50 [2]: > 7.00 |
